Measurements from publication PMC8348142, “Antimicrobial Peptide Modifications against Clinically Isolated Antibiotic-Resistant Salmonella” (Molecules, 2021).
Marks after values point to notes of the source that are not given here. Square brackets hold non-standard residues; d marks the D form. Peptide text beside a SMILES is read from it.

Tests used:
Type in all cases: cell-based
[1] = test system: clinical Salmonella isolates; test: MIC, broth microdilution; settings: MHB, 5 × 10^5 CFU/mL, 37 °C, 18 h, duplicate
Method: (§1) All 12 isolates of Salmonella used in this study were clinical isolates and anonymous left-overs from laboratory diagnoses. They were maintained in a 20% glycerol (Sigma-Aldrich) stock at −80 °C and further cultured on Mueller-Hinton agar (MHA, Oxoid, Hampshire, UK) at 37 °C for 18 h to obtain single colonies for antimicrobial assays. This study was approved by the Ethics Committee of the Faculty of Tropical Medicine (Mahidol University, Bangkok, Thailand; MUTM-EXMPT 2017-007).
MIC was determined using the broth microdilution method described by Hancock with some modifications. Briefly, bacterial colonies grown from the MHA were prepared in MHB (Oxoid) as a 0.5 McFarland suspension (which is equal to 1 × 10^8 CFU/mL), and was further 200-fold diluted by the MHB (5 × 10^5 CFU/mL). The bacterial suspension (50 µL) was mixed with 2-fold serial dilutions of peptide (5.5 µL) achieving final concentrations of 256 to 1 µM using a round-bottom polypropylene (PP) 96-well plate (Greiner Bio-One). The plate was incubated at 37 °C for 18 h including incubating peptide free-bacteria as positive growth control, and MHB as negative growth control. After the incubation, the lowest concentration with no visible growth was defined as a MIC value. The assay was performed in a duplicate manner.

[2] = test system: clinical Salmonella isolates; test: MBC, drop plate method, and MBC/MIC mode of action; settings: for MBC: drop plate on MHA from MIC plate, 37 °C, 18 h, thrice
Method: as §1
The plate derived from the MIC assay was immediately tested for the MBC using a drop plate method. A volume of 10 µL of the culture from individual wells at MIC, 2MIC, and 4MIC was dropped on MHA plates. […] The experiment was thrice performed.
In order to determine whether the peptides have bacteriostatic or bactericidal activity, a ratio of MBC to MIC (MBC/MIC) was applied. The ratio >4 was indicative of bacteriostatic peptide, and ≤4 was inferred as bactericidal peptide.

[3] = test system: sheep red blood cells; test: Hemolytic activity assay; settings: for percent hemolysis: 2% sRBCs in PBS, 37 °C, 1 h, OD540, triplicate mean
Method: The peptide toxicity to the mammalian system was screened based on the hemolytic test by measuring the hemoglobin released from ruptured red blood cells (RBCs). In this study, sheep RBCs (sRBCs) were employed. They were thrice washed and prepared as a suspension in phosphate-buffered saline (PBS, Oxoid). A suspension of 2% sRBCs was incubated with 2-fold serial dilutions of peptide (final concentrations; 256 to 1 µM in a total volume of 200 µL) at 37 °C for 1 h. The solutions of 0.1% (final concentration) Triton X-100 (Sigma-Aldrich) and PBS containing the peptide solvent were used instead of the peptides as the controls of hemolysis at 100% and 0%, respectively. Thereafter, the post-incubated suspensions were centrifuged (1000× g, 3 min) to pelletize residual sRBCs. The supernatants were then transferred into a flat-bottom PS 96-well plate and were measured the absorbance at 540 nm (OD540) by a microplate reader. The test was conducted in triplicate and the mean OD540 was used to calculate the hemolysis (%) as; ((OD540 (peptide) − OD540 (PBS + peptide solvent))/(OD540 (0.1% Triton X-100) − OD540 (PBS + peptide solvent))) × 100. The hemolytic concentration 50 (HC50), a concentration inducing 50% hemolysis, was determined.
The GraphPad Prism version 7.00 (GraphPad Software, La Jolla, CA, USA) was applied for all statistical analyses and data visualizations. Replicate quantitative results were calculated and shown as mean ± SD, unless otherwise specified. The HC50 values were determined using nonlinear regression analysis. The paired t-test and repeated measures one-way ANOVA with Tukey’s multiple comparison test were applied to compare between 2 groups and among 3 or more groups, respectively. The comparisons were considered as a statistically significant difference when a p-value < 0.05.

CC[C@@H](C)[C@@H](NC(=O)[C@H](N)Cc1ccccc1)C(=O)N[C@H](CCCNC(=N)N)C(=O)N[C@H](CCCNC(=N)N)C(=O)N[C@@H](C(=O)N[C@H](C)C(=O)N[C@H](CCCNC(=N)N)C(=O)N[C@H](CC(C)C)C(=O)N[C@H](CC(C)C)C(=O)N[C@H](CCCNC(=N)N)C(=O)N[C@H](CCCNC(=N)N)C(=O)N[C@@H](C(=O)N[C@H](Cc1ccccc1)C(N)=O)[C@H](C)CC)[C@H](C)CC [dKn2-5R-NH2] (H-[dF][dI][dR][dR][dI][dA][dR][dL][dL][dR][dR][dI][dF]-NH2)
8.7%: percent hemolysis ([3]; peptide 64 µM)
0%: percent hemolysis ([3]; peptide 1 µM) | percent hemolysis ([3]; peptide 2 µM)
2.5%: percent hemolysis ([3]; peptide 32 µM)
4 µM: MIC ([1]; isolate 27 (Typhimurium, stool; resistant AMP, TE, NA, SXT, CIP)) | MIC ([1]; isolate 55 (Typhimurium, blood; resistant AMP, SXT, C, TE)) | MIC ([1]; isolate 61 (Enteritidis, blood; resistant AMP, TE, NA, SXT)) | MIC ([1]; isolate 69 (Typhimurium, stool; resistant AMP)) | MIC ([1]; isolate 107 (Typhimurium, stool; susceptible)) | MBC ([2]; isolate 27 (Typhimurium)) | MBC ([2]; isolate 55 (Typhimurium)) | MBC ([2]; isolate 61 (Enteritidis)) | MBC ([2]; isolate 69 (Typhimurium)) | MBC ([2]; isolate 107 (Typhimurium)) | concentration required for the initiation of hemolysis ([3]; sRBCs, 60 min, 256–1 µM tested)
8 µM: MIC ([1]; isolate 5 (Enteritidis, blood; resistant AMP, SXT, KZ)) | MIC ([1]; isolate 7 (Typhimurium, blood; resistant AMP, CN, TE, NA, SXT)) | MIC ([1]; isolate 11 (I 1,4:i:-, blood; resistant AMP, TE, NA, SXT, C)) | MIC ([1]; isolate 18 (Stanley, urine; resistant TE, SXT, C)) | MIC ([1]; isolate 26 (Typhimurium, urine; resistant TZP, TE, NA)) | MIC ([1]; isolate 76 (Enteritidis, CSF; resistant NA)) | MIC ([1]; isolate 78 (Enteritidis, blood; resistant TE, CIP, NA, SXT)) | MBC ([2]; isolate 5 (Enteritidis)) | MBC ([2]; isolate 7 (Typhimurium)) | MBC ([2]; isolate 11 (I 1,4:i:-)) | MBC ([2]; isolate 18 (Stanley)) | MBC ([2]; isolate 26 (Typhimurium)) | MBC ([2]; isolate 76 (Enteritidis)) | MBC ([2]; isolate 78 (Enteritidis))
5.99 µM: GM of MBC ([2]; geometric mean over 12 clinical Salmonella isolates)
65.6%: percent hemolysis ([3]; peptide 256 µM)
0.9%: percent hemolysis ([3]; peptide 16 µM)
0.4 * %: percent hemolysis ([3]; peptide 4 µM)
23.6%: percent hemolysis ([3]; peptide 128 µM)
0.5 * %: percent hemolysis ([3]; peptide 8 µM)
199.20 µM: HC50 (hemolytic concentration 50) ([3]; concentration inducing 50% hemolysis of sRBCs, nonlinear regression, unit (µM))
